Test results: patent US9682940B2, “Indazole derivatives useful as CB-1 inverse agonists” (Janssen Pharmaceutica NV, priority 2015, dated 2017)
Like-named read-outs stand apart in the source and are kept apart here.

Assays:
Mouse Fast PK/BBB [1] = type: in vivo, Male C57bl/6j mice; details: oral; for concentration at 4 hr / concentration at 1 hr: male, C57bl/6j, Dose 30 mg/kg; for BRAIN Mean Conc. (ng/mL) ± Std. Dev / PLASMA Mean Conc. (ng/mL) ± Std. Dev: Dose 20 mg/kg
Description: Male C57bl/6j mice were ordered from Charles River at 22-25 g and housed 3 per cage. They were fed standard chow (Purina 5001).
Male C57bl/6j mice were dosed with test compounds at 20 mg/kg or 30 mg/kg. Plasma was collected via retro-orbital bleeding at 1 hr and 4 hrs after dosing. Whole brain without cerebellum was collected at 4 hrs after dosing. Wet brain weight was recorded before freezing. Brains were homogenized in saline and sent for analysis for determination of concentration of test compound.

[2] = biological target: Human CB1R (Cannabanoid receptor 1) (Homo sapiens (Human), UniProt P21554); experiment: CB-1 in vitro cAMP (HTRF) assay in HEK-293 cells; type: cell-based; details: HEK-293 cells stably transfected with human CB1R, 250 nM Forskolin, mean where tested more than once, read-out: CB-1 (HEK_cAMP) EC50
Method in brief: (§1)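 HEK-293 cells stably expressing human CB1 or CB2 plated overnight, then tested in HBSS/5 mM HEPES/0.1% BSA with 0.5 mM IBMX and forskolin (1.5 μM working dilution). Intracellular cAMP quantified by competitive HTRF immunoassay (d2-cAMP, cryptate anti-cAMP) against a cAMP standard curve; compounds as 1/3 serial dilutions from 10 mM DMSO stocks.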

[3] = biological target: Human CB2R (Cannabanoid receptor 2) (Homo sapiens (Human), UniProt P34972); experiment: CB-2 in vitro cAMP (HTRF) assay in HEK-293 cells; type: cell-based; details: HEK-293 cells stably transfected with human CB2R, 250 nM Forskolin, mean where tested more than once, read-out: CB-2 (HEK_cAMP) EC50
Method in brief: as §1

Mouse Fast PK/BBB [4] = type: in vivo, Male C57bl/6j mice; details: male, C57bl/6j, brain, oral, Dose 30 mg/kg, read-out: BRAIN Mean Conc. (ng/mL) ± Std. Dev
[5] = DIO mice, 30 mg/kg daily
[6] = brain, Time 4 hr, read-out: BRAIN Mean Conc. (ng/mL) ± Std. Dev
[7] = plasma, Time 1 hr, read-out: PLASMA Mean Conc. (ng/mL) ± Std. Dev
[8] = plasma, Time 4 hr, read-out: PLASMA Mean Conc. (ng/mL) ± Std. Dev

Human CB1R (Cannabanoid receptor 1), sequence (P21554 whole entry): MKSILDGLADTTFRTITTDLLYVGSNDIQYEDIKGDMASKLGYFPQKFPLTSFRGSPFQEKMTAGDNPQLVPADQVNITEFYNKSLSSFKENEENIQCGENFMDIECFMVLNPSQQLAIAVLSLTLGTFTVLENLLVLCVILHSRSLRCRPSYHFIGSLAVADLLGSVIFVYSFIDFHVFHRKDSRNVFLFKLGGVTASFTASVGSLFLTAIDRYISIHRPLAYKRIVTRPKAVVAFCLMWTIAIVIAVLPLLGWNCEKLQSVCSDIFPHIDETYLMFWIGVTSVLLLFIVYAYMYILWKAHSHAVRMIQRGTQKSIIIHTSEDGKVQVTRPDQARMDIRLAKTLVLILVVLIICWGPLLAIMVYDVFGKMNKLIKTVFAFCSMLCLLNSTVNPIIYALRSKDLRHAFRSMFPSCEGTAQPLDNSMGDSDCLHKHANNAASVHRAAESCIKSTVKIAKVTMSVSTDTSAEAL
Human CB2R (Cannabanoid receptor 2), sequence (P34972 whole entry): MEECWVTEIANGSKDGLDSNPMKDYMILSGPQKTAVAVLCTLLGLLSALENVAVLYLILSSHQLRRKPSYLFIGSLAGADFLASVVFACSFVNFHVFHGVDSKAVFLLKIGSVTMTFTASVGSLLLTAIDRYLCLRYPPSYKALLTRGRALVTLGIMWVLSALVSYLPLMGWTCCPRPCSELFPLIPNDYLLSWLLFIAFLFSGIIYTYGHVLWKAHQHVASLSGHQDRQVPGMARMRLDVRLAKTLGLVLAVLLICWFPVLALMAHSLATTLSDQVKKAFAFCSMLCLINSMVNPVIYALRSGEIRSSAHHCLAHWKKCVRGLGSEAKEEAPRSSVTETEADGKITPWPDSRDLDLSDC

In the case of `NC(=O)c1cc(S(=O)(=O)N2CCC(c3c4cc(C(c5ccc(Cl)cc5)c5ccc(Cl)cc5)ccc4nn3C3CC3)CC2)ccc1Cl` [Compound 169, 5-(4-(5-(bis(4-chlorophenyl)methyl)-2-cyclopropyl-2H-indazol-3-yl)piperidin-1-ylsulfonyl)-2-chlorobenzamide], the concentration at 4 hr (Mouse Fast PK/BBB [1]; [6]) is reported as 54.8 ± 14.5 ng/mL, the concentration at 1 hr (Mouse Fast PK/BBB [1]; [7]) is reported as 2460 ± 427 ng/mL and the concentration at 4 hr (Mouse Fast PK/BBB [1]; [8]) is reported as 2310 ± 554 ng/mL. The EC50 [2] was 17 nM, the EC50 [3] was over 10 µM and the concentration at 1 hr (Mouse Fast PK/BBB [4]) was 29.4 ± 3.9 ng/mL.

Compound `O=S(=O)(c1cccc(O)c1)N1CCC(c2c3cc(C(c4ccc(Cl)cc4)c4ccc(Cl)cc4)ccc3nn2C2CC2)CC1` [Compound 151, 3-(4-(5-(bis(4-chlorophenyl)methyl)-2-cyclopropyl-2H-indazol-3-yl)piperidin-1-ylsulfonyl)phenol] has a concentration at 4 hr (Mouse Fast PK/BBB [1]; [6]) of 31.4 ± 13.4 ng/mL, a concentration at 1 hr (Mouse Fast PK/BBB [1]; [7]) of 2740 ± 160 ng/mL and a concentration at 4 hr (Mouse Fast PK/BBB [1]; [8]) of 884 ± 584 ng/mL. It also gave an EC50 [2] of 6 nM, an EC50 [3] of over 10 µM and a concentration at 1 hr (Mouse Fast PK/BBB [4]) of 41.8 ± 15.7 ng/mL.

In the case of `O=S(=O)(N1CCC(c2n[nH]c3ccc(C(c4ccc(Cl)cc4)c4ccc(Cl)cc4)cc23)CC1)C(F)(F)F` [Compound 17, 5-(bis(4-chlorophenyl)methyl)-3-(1-(trifluoromethylsulfonyl)piperidin-4-yl)-1H-indazole], the “BRAIN Mean Conc. (ng/mL) ± Std. Dev” value (Mouse Fast PK/BBB [1]; Time 1 hr) is reported as 51.8 ± 16.6 ng/mL, the “PLASMA Mean Conc. (ng/mL) ± Std. Dev” value (Mouse Fast PK/BBB [1]; Time 1 hr) is reported as 4478.2 ± 1576.9 ng/mL and the “BRAIN Mean Conc. (ng/mL) ± Std. Dev” value (Mouse Fast PK/BBB [1]; Time 4 hr) is reported as 103.2 ± 10.8 ng/mL. For the same compound, the “PLASMA Mean Conc. (ng/mL) ± Std. Dev” value (Mouse Fast PK/BBB [1]; Time 4 hr) was 3444.4 ± 1058.9 ng/mL, the EC50 [2] was 6 nM and the “Fed Blood Glucose (Std Err)” value ([5]; Day 0) was 174 (9) mg/dL. The “Mean Body Weight (in Grams (Std Err))” value ([5]; Day 0) was 42.3 (1.0) Grams, the “Mean Body Weight (in Grams (Std Err))” value ([5]; Day 1) was 40.2 (1.1) Grams and the “Mean Daily Food Intake (in Grams (Std Err))” value (“Mean Daily Food Intake” for short) ([5]; Day 1) was 0.8 (0.3) Grams. For the same compound, the “Mean Body Weight (in Grams (Std Err))” value ([5]; Day 2) was 38.3 (1.0) Grams, the “Mean Daily Food Intake” value ([5]; Day 2) was 0.3 (0.1) Grams and the “Mean Body Weight (in Grams (Std Err))” value ([5]; Day 3) was 37.2 (1.1) Grams. The “Mean Daily Food Intake” value ([5]; Day 3) was 0.5 (0.1) Grams, the “Fed Blood Glucose (Std Err)” value ([5]; Day 4) was 150 (7) mg/dL and the “Mean Body Weight (in Grams (Std Err))” value ([5]; Day 4) was 36.3 (1.0) Grams. The “Mean Daily Food Intake” value ([5]; Day 4) was 0.8 (0.1) Grams and the “Plasma Insulin (Std Err)” value ([5]; day 5, 2 hours after dose) was 1.24 (0.28) ng/mL.
